This passage reports TGI results from PubChem BioAssay (NCI).

Common to all, as to test: NCI tumour cell line growth inhibition, 48 h
Assay [1] deals with A549 NSCLC.
The test system of assay [2] is ACHN renal.
Assay [3] deals with CCRF-CEM leukemia.
Assay [4] deals with COLO 205 colon.
Assay [5] relates to HCT-15 colon.
For assay [6], the system named is HOP-62 NSCLC.
Assay [7] concerns HOP-92 NSCLC.
Assay [8] has as its system HS 578T breast.
The test system of assay [9] is HT29 colon.
The subject of assay [10] is K-562 leukemia.
For assay [11], the system named is MDA-MB-435.
Assay [12] deals with MDA-N.
The test system of assay [13] is NCI-H23 lung.
The subject of assay [14] is NCI/ADR-RES ovarian.
The test system of assay [15] is OVCAR-4 ovarian.
Assay [16] deals with OVCAR-5 ovarian.
The test system of assay [17] is RXF 393 renal.
Assay [18] concerns SF-268 CNS.
For assay [19], the system named is SF-539 CNS.
The test system of assay [20] is SK-MEL-2 melanoma.

Each structure is given as a SMILES string.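 Values below derive from 48-hour exposures of cells grown in 96-well plates, with endpoints linearly interpolated between the two concentrations bracketing the appropriate inhibition level. TGI marks complete inhibition of growth.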

`CCN(CCCl)c1cc(CN(C)C)cc(NC(=O)c2ccc(C(=O)Nc3cccc(N(CCCl)NN)c3)cc2)c1`: the TGI in [1] amounted to 2520 nM; in [2], 233 nM; in [3], 115 nM; in assay [4] it was 199 nM; in assay [5], 4890 nM; in [6], 10700 nM. Further, the TGI in [7] worked out at 707 nM; in assay [8] it was 71.1 nM; in assay [9], 40.9 nM; in assay [10], 199 nM; in [11], 38.9 nM; in [12], 169 nM. The TGI was 626 nM in [13]; 12700 nM in [14]; 364 nM in assay [15]; 989 nM in assay [16]; 142 nM in assay [17]; 20500 nM in assay [18]. In addition, the TGI was 560 nM in assay [19] and 181 nM in assay [20].
